The NIST ThermoML archive (doi:10.1021/je300405a)

Conditions: Liquid; for speed of sound: Pulse-echo method; for mass density: Vibrating tube method

CCCCCCCCCC(=O)OC [methyl decanoate]
Conditions	mass density, 293.15 K [kg/m3]	mass density, 303.15 K [kg/m3]	mass density, 313.15 K [kg/m3]	mass density, 323.15 K [kg/m3]	mass density, 333.15 K [kg/m3]	mass density, 343.15 K [kg/m3]	speed of sound, 283.15 K [m/s]	speed of sound, 303.15 K [m/s]	speed of sound, 323.15 K [m/s]	speed of sound, 343.15 K [m/s]
101.3 kPa	872.05	863.6	855.85	847.65	839.36	830.82	1362.6	1287.7	1214.8	1142.8
10000 kPa	878.88	870.96	863.12	855.36	847.25	839.54	1408.9	1339.2	1269.1	1202.4
20000 kPa	885.04	877.43	869.91	862.49	854.44	847.61	1452.2	1385.8	1319.3	1255.9
30000 kPa	890.91	883.54	876.23	869.02	861.45	854.58	1493.2	1429.6	1365.7	1304.9
40000 kPa	896.46	889.26	882.19	875.03	867.94	861.37	1531.7	1470.3	1409	1350.5
50000 kPa	901.66	894.61	887.77	880.76	873.98	867.59	1568	1508.7	1449.5	1393.5
60000 kPa	906.63	899.63	893.04	886.55	879.63	873.44	1602.6	1544.9	1487.8	1433.7
70000 kPa	911.3	904.55	898.12	891.71	885.02	–	1634.5	1580.2	1524	1471.7
80000 kPa	915.52	909.11	902.9	896.69	890.12	–	1666.4	1614.1	1558.3	–
90000 kPa	920.05	913.59	907.5	901.4	894.95	–	1696.9	1646.1	1591.2	–
100000 kPa	924.3	917.87	911.9	905.81	899.64	–	1726.9	1676.9	1623.3	–
110000 kPa	–	–	–	–	–	–	1755.2	1706.8	1653.9	–
120000 kPa	–	–	–	–	–	–	1783.4	1735.1	1684.6	–
130000 kPa	–	–	–	–	–	–	1809.5	1762.8	1711.9	–
140000 kPa	–	–	–	–	–	–	1835.9	1789.2	1739.6	–
150000 kPa	–	–	–	–	–	–	–	1815.2	1765.9	–
170000 kPa	–	–	–	–	–	–	–	1864.9	1817	–
190000 kPa	–	–	–	–	–	–	–	1912.7	1864.8	–
210000 kPa	–	–	–	–	–	–	–	1957.6	1910.9	–
